According to ChEMBL document CHEMBL1144942, “Enantioselective responses to a phosphorothioate analogue of lysophosphatidic acid with LPA3 receptor-selective agonist activity” (J Med Chem, 2003):

What was measured:
OVCAR-3 = assay: Agonistic activity in human OVCAR-3 (ovarian cancer cells); format: functional, cell-based
HT-29 = assay: Agonistic activity in human HT-29 colon cancer cells; format: functional, cell-based

| SMILES | EC50 (OVCAR-3) [µM] | EC50 (HT-29) [µM] |
| --- | --- | --- |
| CCCCCCCCCCCCCCCCCC(=O)OC[C@@H](COP(O)(O)=S)OC | 0.0465 | < 1000 |
| CCCCCCCCCCCCCCCCCC(=O)OC[C@H](COP(O)(O)=S)OC | 0.009 | < 1000 |
